The MIC is the smallest concentration in the dilution series that meets the test's criterion for growth inhibition. A high value points to weaker potency.

Molecules are shown by their SMILES. ≈ marks a conversion by molar mass, not a printed value.

Type in all cases: functional
Test [1] has as its system Staphylococcus aureus. Nature of the test: Antibacterial activity against Methicillin-resistant Staphylococcus aureus KU60.
Test [2] concerns Staphylococcus aureus. Nature of the test: Antibacterial activity against Staphylococcus aureus ATCC 25923 by CLSI-based broth microdilution method. On the technique in general: Broth dilution looks for growth in wells or tubes with falling amounts of substance.
The test system of test [3] is Staphylococcus aureus. Nature of the test: Resistance index, ratio of MIC for antibacterial activity against methicillin-resistant Staphylococcus aureus […] to MIC for antibacterial activity against methicillin-sensitive Staphylococcus aureus.
For test [4], the system named is Staphylococcus aureus. Put plainly: Antibacterial activity against Methicillin-resistant Staphylococcus aureus 1 incubated for 16 hrs by agar dilution method.
Test [5] deals with Staphylococcus aureus. Put plainly: Antibacterial activity against Methicillin-resistant Staphylococcus aureus 2 incubated for 16 hrs by agar dilution method. In general terms: Agar dilution tests growth on a series of plates holding different concentrations.
The test system of a further test is Enterococcus. Nature of the test: Antibacterial activity against Vancomycin-resistant enterococcus 2 incubated for 16 hrs by agar dilution method.
Test [6] has as its system Staphylococcus aureus. Nature of the test: Antibacterial activity against methicillin-resistant Staphylococcus aureus ATCC 43300 incubated for 16 to 18 hrs by CLSI based assay. The following applies: time 16-18 hrs.
Test [7] relates to Staphylococcus aureus. Put plainly: Resistance index, ratio of MIC for antibacterial activity against Staphylococcus aureus ATCC 43300 incubated for 16 to 18 hrs by CLSI based assay to MIC for antibacterial activity against Staphylococcus aureus DSM 20231 incubated for 16 to 18 hrs by CLSI based assay. The following applies: time 16-18 hrs.
In test [8] the test system is Staphylococcus aureus. Put plainly: Antibacterial activity against methicillin-resistant Staphylococcus aureus.

The compound `CC(C)(C)C(=O)N1CCN(c2ccc(N3C[C@H](Cn4ccnn4)OC3=O)cc2F)CC1` returned an MIC in the test on Staphylococcus aureus [1] of 0.25 µg/mL (≈ 0.581 µM).
The compound `CC(C)NC(=N)c1ccc2[nH]c(-c3ccc(OCc4cn(-c5ccccc5)nn4)cc3)nc2c1` returned a minimal inhibitory concentration (MIC) in the test on Staphylococcus aureus [2] of 8 µg/mL (≈ 17.7 µM). In addition, the Ratio in the test with Staphylococcus aureus [3] amounted to 0.125.
For `CC(C)NC(=N)c1ccc2[nH]c(-c3ccc(OCc4cn(-c5ccccc5Cl)nn4)cc3)nc2c1` the same measures were 8 µg/mL (≈ 16.5 µM) and 0.125.
In turn, `O=C(c1ccccc1)N1CCN(c2ccc(N3C[C@H](Cn4ccnn4)OC3=O)cc2F)CC1` came in with an MIC against Staphylococcus aureus [1] of 0.25 µg/mL (≈ 0.555 µM).
As for `C#CCOCCOCCOCc1cn([C@H](CC(C)C)C(=O)N[C@@H]2Cc3ccc(c(Cl)c3)Oc3cc4cc(c3O[C@@H]3O[C@H](CO)[C@@H](O)[C@H](O)[C@H]3O[C@H]3C[C@](C)(NCCCCCCCc5ccccc5)[C@H](O)[C@H](C)O3)Oc3ccc(cc3Cl)[C@@H](O)[C@@H]3NC(=O)[C@H](NC(=O)[C@@H]4NC(=O)[C@H](CC(=O)O)NC2=O)c2ccc(O)c(c2)-c2c(O)cc(O)cc2[C@H](C(=O)O)NC3=O)nn1`, the MIC in the test with Staphylococcus aureus [4] is 25 µg/mL (≈ 13.9 µM); with Staphylococcus aureus [5] it was 12.5 µg/mL (≈ 6.93 µM).
With `O=C(C(Cl)Cl)N1CCN(c2ccc(N3C[C@H](Cn4ccnn4)OC3=O)cc2F)CC1`, inhibition of growth in the test with Staphylococcus aureus [1] (MIC) required 0.25 µg/mL (≈ 0.547 µM).
Regarding `CC(C)C[C@H](C(=O)N[C@@H]1Cc2ccc(c(Cl)c2)Oc2cc3cc(c2O[C@@H]2O[C@H](CO)[C@@H](O)[C@H](O)[C@H]2O[C@H]2C[C@](C)(NCCCCCCCc4ccccc4)[C@H](O)[C@H](C)O2)Oc2ccc(cc2Cl)[C@@H](O)[C@@H]2NC(=O)[C@H](NC(=O)[C@@H]3NC(=O)[C@H](CC(=O)O)NC1=O)c1ccc(O)c(c1)-c1c(O)cc(O)cc1[C@H](C(=O)O)NC2=O)n1cc(COc2ccc(-c3ccc(OCc4cn([C@H](CC(C)C)C(=O)N[C@@H]5Cc6ccc(c(Cl)c6)Oc6cc7cc(c6O[C@@H]6O[C@H](CO)[C@@H](O)[C@H](O)[C@H]6O[C@H]6C[C@](C)(NCCCCCCCc8ccccc8)[C@H](O)[C@H](C)O6)Oc6ccc(cc6Cl)[C@@H](O)[C@@H]6NC(=O)[C@H](NC(=O)[C@@H]7NC(=O)[C@H](CC(=O)O)NC5=O)c5ccc(O)c(c5)-c5c(O)cc(O)cc5[C@H](C(=O)O)NC6=O)nn4)cc3)cc2)nn1`, the minimum inhibitory concentration (MIC) amounted to 12.5 µg/mL (≈ 3.57 µM) against Staphylococcus aureus [4], 12.5 µg/mL (≈ 3.57 µM) in the test with Staphylococcus aureus [5] and 25 µg/mL (≈ 7.14 µM) against Enterococcus.
Turning to `CC(C)NC(=N)c1ccc2[nH]c(-c3ccc(OCc4cn(CSc5ccccc5)nn4)cc3)nc2c1`, in the test on Staphylococcus aureus [2], the MIC came out at 8 µg/mL (≈ 16.1 µM). In the test with Staphylococcus aureus [3], the Ratio was determined as 0.125.
In the test on Staphylococcus aureus [6], `N=C(N)NCCC[C@H](NC(=O)[C@H](Cc1c[nH]c2ccccc12)NC(=O)[C@H](CCCNC(=N)N)NC(=O)[C@H](Cc1c[nH]c2ccccc12)NC(=O)[C@@H](N)CCCNC(=N)N)C(=O)N[C@@H](Cc1c[nH]c2ccccc12)C(=O)N[C@@H](CCCCn1cc(COc2cccc(OCc3cn(CCCC[C@H](NC(=O)[C@H](Cc4c[nH]c5ccccc45)NC(=O)[C@H](CCCNC(=N)N)NC(=O)[C@H](Cc4c[nH]c5ccccc45)NC(=O)[C@H](CCCNC(=N)N)NC(=O)[C@H](Cc4c[nH]c5ccccc45)NC(=O)[C@@H](N)CCCNC(=N)N)C(N)=O)nn3)c2)nn1)C(N)=O` yielded an MIC of 2.7 µM (≈ 6.97 µg/mL). Besides, the Ratio with Staphylococcus aureus [7] was 0.5.
For `N=C(N)NCCC[C@H](NC(=O)[C@H](Cc1c[nH]c2ccccc12)NC(=O)[C@H](CCCNC(=N)N)NC(=O)[C@H](Cc1c[nH]c2ccccc12)NC(=O)[C@@H](N)CCCNC(=N)N)C(=O)N[C@@H](Cc1c[nH]c2ccccc12)C(=O)N[C@@H](CCCCn1cc(COc2ccccc2)nn1)C(N)=O` the same measures were 2.7 µM (≈ 3.59 µg/mL) and 0.5.
With `c1ccc(SCn2cc(COc3ccc(-c4nc5cc(C6=NCCN6)ccc5[nH]4)cc3)nn2)cc1`, the MIC in the test on Staphylococcus aureus [2] came to 8 µg/mL (≈ 16.6 µM). In the test on Staphylococcus aureus [3], the Ratio came out at 0.125.
Compound `COc1c(N2C[C@@H]3CCCN[C@@H]3C2)c(F)cc2c(=O)c(C(=O)O)cn(C3CC3)c12` [MOXIFLOXACIN] gave a minimal inhibitory concentration (MIC) in the test on Staphylococcus aureus [8] of 8 µg/mL (≈ 19.9 µM).
